Measured values reported in patent US20240139197A1, “INHIBITION OF KDM5A FOR PROMOTING ANTIGEN PRESENTATION, INCREASING CD8+ T CELL INFILTRATION AND BOOSTING ANTI-TUMOR IMMUNE RESPONSE” (The Wistar Institute of Anatomy and Biology, priority 2022, published 2024).

Columns and labels:
H2-K1 in ID8 cells = assay: H2-K1 expression by RT-qPCR; format: cell-based, mouse; details: ID8, with IFNγ treatment
Text: (§1) FIG. 4A-FIG. 4M show KDM5A regulates antigen processing and presentation pathway. (FIG. 4A) Experimental strategy used to identify Kdm5a direct target genes. […] (FIG. 4B) CUT&RUN tracks of the newly identified Kdm5a target gene H2-K1 for Kdm5a and H3K4me3 in ID8 cells. (FIG. 4C) Expression of H2-K1 in doxycycline-inducible shKdm5a ID8 cells, Kdm5a inhibitor CPI-455, or Kdm5a knockout cells with or without IFNγ stimulation determined by RT-qPCR. (FIG. 4D) Cell surface expression of H2-K1 in control and Kdm5a knockout ID8 cells with or without IFNy stimulation was determined by FACS analysis. (FIG. 4E) Quantification of FIG. 4D. (FIG. 4F) Cell surface expression of H2-K1 in control and doxycyclineinducible Kdm5a-knockdown ID8 cells with or without IFNγ stimulation was determined by FACS analysis. (FIG. 4G) Quantification of FIG. 4F. (FIG. 4H) Cell surface expression of H2-K1 in D8 cells treated with vehicle or CPI-455 with or without IFNγ stimulation was determined by FACS analysis. (FIG. 4I) Quantification of FIG. 4H; An isotype matched IgG was used as a negative control for all the FACS analysis. […] Data represent mean±SEM of three biological repeats; P-value was calculated by using a two-tailed Student t test except in FIG. 4L by using Pearson r analysis test and FIG. 4M by using Fisher's exact test. […]

H3K4me3 in ID8 cells = assay: immunoblot of H3K4me3, ID8; format: cell-based, mouse; details: ID8, 10 μM
Method: FIG. 2A-FIG. 2J show KDM5A inhibition suppresses tumor growth in vivo in an immune-competent mouse model of ovarian cancer. (FIG. 2A) Expression of Kdm5a, H3K4me3, and a loading control β-actin in doxycycline-inducible shKdm5a ID8 mouse EOC cells treated with or without 2 μg/mL of doxycycline. (FIG. 2B) ID8 cells were plated into 24 well plates and treated with 2 μg/mL of doxycycline the same day. Cells were incubated for 8 days. Relative cell viability was determined by colony formation assay. (FIG. 2C) Expression of Kdm5a, H3K4me3, and a loading control β-actin in ID8 cells treated with 10uM CPI-455 or vehicle control. (FIG. 2D) ID8 cells were plated into 24 well plates and incubated with 10 μM CPI-455 for 8 days with fresh drug-containing media every 3 days. Relative cell viability was determined by colony formation assay. (FIG. 2E) Ascites produced in C57BL/6 mice injected with doxycycline-inducible shKdm5a ID8 cells treated with control or doxycycline containing food. (FIG. 2F) Quantification of ascites volumes from FIG. 2E. […] (FIG. 21) Quantification of ascites volumes from FIG. 2H. […] Data represent mean±SEM of three biological repeats or 5 mice per group; P-value was calculated by using a two-tailed Student t test except in FIG. 2G and FIG. 2J by log rank tests.
Cells were trypsinized and washed two times with PBS. […] Protein concentration was measured by the BCA assay (Pierce, Cat #23225). […]

[1] = test system: H2-K1 gene promoter in ID8 cells; assay: ChIP at H2-K1 gene promoter; format: cell-based, mouse; details: ID8, IFNγ, anti-H3K4me3 ChIP
Text: as §1

ID8 cells = assay: syngeneic ovarian cancer mouse model, CPI-455 treatment; format: in vivo; details: 50 mg/kg i.p., immuno-competent C57BL/6 mice bearing ID8

Substance: CPI-455
- expression of H2-K1 (H2-K1 in ID8 cells): upregulated
- H3K4me3 levels (H3K4me3 in ID8 cells): increase H3K4me3 levels
- association of H3K4me3 with H2-K1 gene promoter [1]: increased the association of H3K4me3
- ascites production (ID8 cells): significantly reduced ascites production
- survival of tumor bearing mice (ID8 cells): improved the survival
